The source of these data is patent publication US7115724B2, “Murine genomic polynucleotide sequence encoding a G-protein coupled receptor and methods of use therefor” (priority 2001, dated 2006).

In one experiment the target is T1, mouse P2T receptor (Mus musculus, UniProt Q9CPV9).
T1 construct: Oligonucleotides corresponding to the 5′ and 3′ ends of the predicted protein coding region were used to amplify a fragment; expressed in transfected cells; host or cells: Saccharomyces cerevisiae MPY578 variant expressing a Gpa1-Gαt chimera, with pMP344 (p426GPD backbone) and the FUS1-LacZ reporter pMP283
T1 sequence (Q9CPV9 whole entry, the tested form may be a part): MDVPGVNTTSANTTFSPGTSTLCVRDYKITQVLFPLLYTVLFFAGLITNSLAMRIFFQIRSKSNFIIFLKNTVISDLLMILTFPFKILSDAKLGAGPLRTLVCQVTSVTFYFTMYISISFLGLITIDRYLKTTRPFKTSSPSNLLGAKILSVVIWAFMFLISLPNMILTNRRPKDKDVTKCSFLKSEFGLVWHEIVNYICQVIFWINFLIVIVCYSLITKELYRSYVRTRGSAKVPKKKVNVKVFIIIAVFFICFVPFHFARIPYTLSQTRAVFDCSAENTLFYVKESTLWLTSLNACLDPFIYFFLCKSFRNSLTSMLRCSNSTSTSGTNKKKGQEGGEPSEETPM
Description: Yeast cell-based assay of mouse P2T receptor agonist activation (β-galactosidase reporter). As to conditions: for rank order of potency of agonist stimulation of the mouse P2T receptor: yeast assay (FIG. 2). The text has this: In order to facilitate coupling of the P2T receptor to G protein, MPY578 variant cells express chimeric G alpha proteins coupled to the mating signal transduction pathway. The chimeric constructs are expressed from the GPA1 locus and are composed of Gpa1 sequences in which the 5 C-terminal amino acids have been replaced with those of all the mammalian Gα proteins. A multicopy FUS1-LacZ reporter gene plasmid, pMP283, was introduced into P2T receptor-containing cells and selected on media lacking trp and ura. The resulting yeast strains were used for further analysis.
MPY578 cells that express Gpa1-Gαt chimeric G alpha protein and containing pMP344 and pMP283 were diluted in assay medium (SCD-ura-trp, pH 6.8, 25 mM PIPES, 1 mM 3-aminotriazole) dispensed (5×10^6/ml, 200 μl/well) to the wells of 96-well microtiter dishes containing purinergic ligands. The plates were incubated with shaking (600 rpm) at 30° C. for 3 hours. Samples (25 μl) were transferred to Wallac B & W isoplates for β-galactosidase assay. An equal volume of GAL-SCREEN lysis and chemiluminescent β-galactosidase assay mixture was added. The plates were incubated for 30 min at 30° C. and light emission measured using a Wallac Victor II. Assays were conducted in quadruplicate and results were plotted using GraphPad Prizm.

Experiment [1] addresses T2, human P2Y12 receptor (Homo sapiens, UniProt Q9H244). The conditions noted are these: Zhang et al., 2001, cited from earlier work; for rank order of potency, human P2T (P2Y12) receptor in adenylyl cyclase inhibition assays: reported values.
For experiment [2], the target named is T2, human P2Y12 receptor. On the set-up: host or cells: NIH3T3 cells with a chimeric Gq/i3 construct (FLIPR). The conditions noted are these: cited from earlier work; for rank order of potency, human P2T (P2Y12) receptor measured in FLIPR: reported values, Zhang et al., 2001.
The target in another experiment is T3, mouse P2Y12 (Mus musculus, UniProt Q9CPV9).
T3 construct: expressed in transfected cells; host or cells: NIH3T3 cells stably transfected with pCDNA-Gαq/i3 and pCDNA3.1-mP2Y12
T3 sequence (Q9CPV9 whole entry): as the sequence (Q9CPV9 whole entry, the tested form may be a part) above
The experiment can be described thus: Agonist-induced release of intracellular calcium (FLIPR) in NIH3T3 cells expressing mouse P2Y12 and chimeric Gαq/i3. The experiment is classed as cell-based. The conditions noted are these: for rank order of potency of agonist stimulation of the mouse P2Y12 receptor in FLIPR: NIH3T3 Gαq/i3 cells (FIG. 4). The method, then:
Mammalian cell expression and measurement of intracellular calcium. NIH3T3 cells were stably transfected with pCDNA-Gαq/i3 by electroporation and cultured in the presence of 800 μg/ml neomycin. The NIH3T3 Gαq/i3 line was subsequently stably transfected with pCDNA3.1-mP2Y12 by electroporation and cultured in the presence of 800 μg/ml neomycin and 400 μg/ml hygromycin. Cells were plated without selection and grown overnight at 37° C. The cells were washed with Hank's balanced salt solution without phenol red plus 20 mM HEPES, 2.5 mM probenecid, pH 7.4 and loaded with wash solution plus 5 μM Fluo-4, 0.04% pluronic acid and 1% fetal bovine serum for 1 hour at 37° C. After removing the dye solution and washed with wash buffer, agonists were added and analyzed using the FLIPR (PE Biosystems) to measure accumulation of intracellular calcium in response to compound treatments.
In published reports, Xenopus oocytes injected with the human P2Y12 receptor cRNA and coupled to stimulation of coinjected Kir3.1/Kir3.2 inwardly rectifying K+ currents, the EC50 was 300 nM (Hollopeter, 2001). […] The rank orders of potency of agonist stimulation of the mouse P2Y12 receptor in FLIPR (2MeSADP>ADP=ADPβS>ATPγS) agree well with reported values for the human P2Y12 receptor measured in FLIPR (2MeSADP=2MeSATP>ADP=ADPβS>2CIATP>ATPγS) and in adenylyl cyclase inhibition assays (2MeSATP>2MeSADP>ADP>ATPγS>ADPβS>2CIATP) (Zhang, 2001).
On the technique in general: Calcium assays in cells follow changes in intracellular calcium, usually with a dye or a luminescent sensor.

The target of experiment [3] is T2, human P2Y12 receptor. As to conditions: Xenopus oocytes injected with P2T (human P2Y12) receptor cRNA; Hollopeter et al., 2001; read-out: EC50, stimulation of Kir3.1/Kir3.2 inwardly rectifying K+ currents; cited from earlier work.

Read-outs that look alike come from different tables or passages of the source.

T2 sequence (Q9H244 whole entry): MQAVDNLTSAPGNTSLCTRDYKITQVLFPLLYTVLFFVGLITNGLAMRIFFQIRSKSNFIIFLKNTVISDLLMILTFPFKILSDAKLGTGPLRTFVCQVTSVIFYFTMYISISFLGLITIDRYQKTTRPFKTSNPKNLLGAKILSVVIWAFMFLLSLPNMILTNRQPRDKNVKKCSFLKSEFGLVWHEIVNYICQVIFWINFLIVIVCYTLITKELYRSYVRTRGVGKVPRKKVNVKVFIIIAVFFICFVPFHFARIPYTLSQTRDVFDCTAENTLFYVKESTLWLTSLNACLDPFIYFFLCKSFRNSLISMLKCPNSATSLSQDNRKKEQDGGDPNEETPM

Consider `Nc1nc(Cl)nc2c1ncn2[C@@H]1O[C@H](COP(=O)(O)OP(=O)(O)OP(=O)(O)O)[C@@H](O)[C@H]1O` [2CIATP], for which the “rank order of potency of agonist stimulation of the mouse P2T receptor” value (from here on “rank order … of the mouse P2T receptor”) at mouse P2T receptor was 2MeSADP>2MeSATP>ADP=ADPβS>ATPγS>2CIATP. Further, on human P2Y12 receptor [1], the “rank order of potency, human P2T (P2Y12) receptor in adenylyl cyclase inhibition assays” value was 2MeSATP>2MeSADP>ADP>ATPγS>ADPβS>2CIATP. Moreover, at human P2Y12 receptor [2], the “rank order of potency, human P2T (P2Y12) receptor measured in FLIPR” value (“rank order of potency, human P2T … in FLIPR” below) was 2MeSADP=2MeSATP>ADP =ADPβS>2CIATP>ATPγS.

Consider `CSc1nc(N)c2ncn([C@@H]3O[C@H](COP(=O)(O)OP(=O)(O)O)[C@@H](O)[C@H]3O)c2n1` [2MeSADP], for which the “rank order … of the mouse P2T receptor” value at mouse P2T receptor is 2MeSADP>2MeSATP>ADP=ADPβS>ATPγS>2CIATP. Also, the “rank order of potency of agonist stimulation of the mouse P2Y12 receptor in FLIPR” value at mouse P2Y12 worked out at 2MeSADP>ADP=ADPβS>ATPγS. Also, on human P2Y12 receptor [1], the “rank order of potency, human P2T (P2Y12) receptor in adenylyl cyclase inhibition assays” value is 2MeSATP>2MeSADP>ADP>ATPγS>ADPβS>2CIATP. The “rank order of potency, human P2T … in FLIPR” value at human P2Y12 receptor [2] is on record as 2MeSADP=2MeSATP>ADP =ADPβS>2CIATP>ATPγS.

With `CSc1nc(N)c2ncn([C@@H]3O[C@H](COP(=O)(O)OP(=O)(O)OP(=O)(O)O)[C@@H](O)[C@H]3O)c2n1` [2MeSATP], the “rank order … of the mouse P2T receptor” value at mouse P2T receptor is 2MeSADP>2MeSATP>ADP=ADPβS>ATPγS>2CIATP. Moreover, on human P2Y12 receptor [1], the “rank order of potency, human P2T (P2Y12) receptor in adenylyl cyclase inhibition assays” value was 2MeSATP>2MeSADP>ADP>ATPγS>ADPβS>2CIATP. Also, on human P2Y12 receptor [2], the “rank order of potency, human P2T … in FLIPR” value is 2MeSADP=2MeSATP>ADP =ADPβS>2CIATP>ATPγS.

`Nc1ncnc2c1ncn2[C@@H]1O[C@H](COP(=O)(O)OP(=O)(O)O)[C@@H](O)[C@H]1O` [ADP]: the EC50 at mouse P2T receptor (MPY578 yeast cells, β-galactosidase reporter, read-out: EC50 for ADP stimulation of the mouse P2T assayed in yeast) is 256 nM; at mouse P2Y12 (FLIPR, NIH3T3 Gαq/i3 cells, read-out: EC50 for ADP stimulation of the mouse P2Y12 dependent release of intracellular calcium) it was 27 nM; at human P2Y12 receptor [3], 300 nM; on human P2Y12 receptor [1] (read-out: EC50, ADP dependent inhibition of cAMP accumulation) it was 61 nM; at human P2Y12 receptor [2] (NIH3T3 cells, receptor with chimeric Gq construct, literature value, read-out: EC50 measured by FLIPR), 74 nM. Besides, the “rank order … of the mouse P2T receptor” value on mouse P2T receptor was 2MeSADP>2MeSATP>ADP=ADPβS>ATPγS>2CIATP. For the same molecule, the “rank order of potency of agonist stimulation of the mouse P2Y12 receptor in FLIPR” value at mouse P2Y12 was 2MeSADP>ADP=ADPβS>ATPγS. Further, the “rank order of potency, human P2T (P2Y12) receptor in adenylyl cyclase inhibition assays” value on human P2Y12 receptor [1] was 2MeSATP>2MeSADP>ADP>ATPγS>ADPβS>2CIATP. Moreover, the “rank order of potency, human P2T … in FLIPR” value on human P2Y12 receptor [2] was 2MeSADP=2MeSATP>ADP =ADPβS>2CIATP>ATPγS.

`Nc1ncnc2c1ncn2[C@@H]1O[C@H](COP(=O)(O)OP(O)(O)=S)[C@@H](O)[C@H]1O` [ADPβS]: the “rank order … of the mouse P2T receptor” value at mouse P2T receptor was 2MeSADP>2MeSATP>ADP=ADPβS>ATPγS>2CIATP. Moreover, the “rank order of potency of agonist stimulation of the mouse P2Y12 receptor in FLIPR” value on mouse P2Y12 is given as 2MeSADP>ADP=ADPβS>ATPγS. Also, the “rank order of potency, human P2T (P2Y12) receptor in adenylyl cyclase inhibition assays” value on human P2Y12 receptor [1] was 2MeSATP>2MeSADP>ADP>ATPγS>ADPβS>2CIATP. For the same molecule, the “rank order of potency, human P2T … in FLIPR” value at human P2Y12 receptor [2] is recorded as 2MeSADP=2MeSATP>ADP =ADPβS>2CIATP>ATPγS.

As for `Nc1ncnc2c1ncn2[C@@H]1O[C@H](COP(=O)(O)OP(=O)(O)OP(O)(O)=S)[C@@H](O)[C@H]1O` [ATPγS], at mouse P2T receptor, the “rank order … of the mouse P2T receptor” value is 2MeSADP>2MeSATP>ADP=ADPβS>ATPγS>2CIATP. Moreover, the “rank order of potency of agonist stimulation of the mouse P2Y12 receptor in FLIPR” value at mouse P2Y12 came out at 2MeSADP>ADP=ADPβS>ATPγS. In addition, on human P2Y12 receptor [1], the “rank order of potency, human P2T (P2Y12) receptor in adenylyl cyclase inhibition assays” value is 2MeSATP>2MeSADP>ADP>ATPγS>ADPβS>2CIATP. In addition, on human P2Y12 receptor [2], the “rank order of potency, human P2T … in FLIPR” value is given as 2MeSADP=2MeSATP>ADP =ADPβS>2CIATP>ATPγS.
